Values of other authors, collected in patent US20240274231A1, “Method, System and Computer Program Product for Determining Peptide Immunogenicity” (MyNeo NV, priority 2020, published 2024).
Like-named read-outs stand apart in the source and are kept apart here.

Test system: CD8+ T cell responses
Details: stimulated IFN gamma ELISpot, peptide specific CD8+ T-cell responses among eleven evaluable breast cancer patients, vaccine plus poly-ICLC

For “SLFRAVITK [MAGGE-A196-104, HLA-A3 MAGE-A196-104 vaccine peptide]”, the ELISpot is given as 1 borderline and the ELISpot (listed as MAGE-A196-104) is given as “borderline response”.
